EP3421457B1, “PYRIMIDINE FGFR4 INHIBITORS” (priority 2013, dated 2015)
Where a name gives a salt, the structure may show the parent alone.

Target: T1, FGFR4 (Homo sapiens, UniProt P22455)
T1 construct: purchased Invitrogen
Test: IC50 Profiling of Kinase Activity Inhibition (Kinase HotSpot assay)
Format: biochemical
Settings: not given

T1 sequence (P22455 22-802): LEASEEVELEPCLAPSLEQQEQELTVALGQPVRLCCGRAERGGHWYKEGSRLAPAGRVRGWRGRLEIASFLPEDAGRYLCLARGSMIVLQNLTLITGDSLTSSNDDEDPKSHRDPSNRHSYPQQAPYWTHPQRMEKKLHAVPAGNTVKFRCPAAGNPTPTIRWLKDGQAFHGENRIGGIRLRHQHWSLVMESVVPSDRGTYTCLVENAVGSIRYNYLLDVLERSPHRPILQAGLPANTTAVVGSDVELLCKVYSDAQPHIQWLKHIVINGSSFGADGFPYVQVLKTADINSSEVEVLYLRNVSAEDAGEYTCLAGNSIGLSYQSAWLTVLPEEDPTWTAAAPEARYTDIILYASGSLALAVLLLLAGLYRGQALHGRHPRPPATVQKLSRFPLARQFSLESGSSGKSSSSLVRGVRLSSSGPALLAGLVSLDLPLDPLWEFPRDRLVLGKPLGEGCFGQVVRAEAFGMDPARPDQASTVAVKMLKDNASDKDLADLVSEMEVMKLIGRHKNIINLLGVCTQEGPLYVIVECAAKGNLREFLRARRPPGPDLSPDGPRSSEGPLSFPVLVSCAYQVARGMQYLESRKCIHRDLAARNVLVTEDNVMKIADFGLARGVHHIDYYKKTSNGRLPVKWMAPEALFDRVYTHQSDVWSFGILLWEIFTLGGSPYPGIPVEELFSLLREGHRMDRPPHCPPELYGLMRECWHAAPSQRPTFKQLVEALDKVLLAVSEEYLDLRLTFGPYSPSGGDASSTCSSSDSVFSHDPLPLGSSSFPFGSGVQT

SMILES	IC50
C=CC(=O)Nc1cc(N2CCN(C(C)=O)CC2)ccc1Nc1cc(N(C)C(=O)Nc2c(Cl)c(OC)cc(OC)c2Cl)ncn1 [Compound 154, N-(5-(4-acetylpiperazin-1-yl)-2-((6-(3-(2,6-dichloro-3,5-dimethoxyphenyl)-1-methylureido)pyrimidin-4-yl)amino)phenyl)acrylamide]	< 1 nM

Same assay, conditions: Table 1

SMILES	IC50
C=CC(=O)Nc1cc(C2CCN(C)CC2)ccc1Nc1cc(N(C)C(=O)Nc2c(Cl)c(OC)cc(OC)c2Cl)ncn1 [Compound 112, N-(2-(6-(3-(2,6-dichloro-3,5-dimethoxyphenyl)-1-methylureido)pyrimidin-4-ylamino)-5-(1-methylpiperidin-4-yl)phenyl)acrylamide]	< 1 nM
C=CC(=O)Nc1ccccc1Nc1cc(N(CCOC)C(=O)Nc2c(Cl)c(OC)cc(OC)c2Cl)ncn1 [Compound 116, N-(2-{6-[3-(2,6-Dichloro-3,5-dimethoxy-phenyl)-1-(2-methoxy-ethyl)-ureido]-pyrimidin-4-ylamino}-phenyl)-acrylamide]	4 nM
C=CC(=O)Nc1ccccc1Nc1cc(N(Cc2ccccc2)C(=O)Nc2c(Cl)c(OC)cc(OC)c2Cl)ncn1 [Compound 130, N-(2-{6-[1-Benzyl-3-(2,6-dichloro-3,5-dimethoxy-phenyl)-ureido]-pyrimidin-4-ylamino}-phenyl)-acrylamide]	2 nM
C=CC(=O)Nc1ccccc1Nc1cc(N(Cc2ccncc2)C(=O)Nc2c(Cl)c(OC)cc(OC)c2Cl)ncn1 [Compound 132]	< 1 nM
C=CC(=O)Nc1cc(N2CCN(CC)CC2)ccc1Nc1cc(N(C)C(=O)Nc2cc(OC)cc(OC)c2Cl)ncn1 [Compound 141, N-(2-((6-(3-(2-chloro-3,5-dimethoxyphenyl)-1-methylureido)pyrimidin-4-yl)amino)-5-(4-ethylpiperazin-1-yl)phenyl)acrylamide]	2 nM
C=CC(=O)Nc1cc(N2CCN(CC)CC2)ccc1Nc1cc(N(C)C(=O)Nc2c(F)c(OC)cc(OC)c2F)ncn1 [Compound 143]	10 nM
C=CC(=O)N(C)c1cc(N2CCN(CC)CC2)ccc1Nc1cc(N(C)C(=O)Nc2c(Cl)c(OC)cc(OC)c2Cl)ncn1 [Compound 152]	14 nM
C=CC(=O)Nc1cc(N2CCN(CCN)CC2)ccc1Nc1cc(N(C)C(=O)Nc2c(Cl)c(OC)cc(OC)c2Cl)ncn1 [Compound 161, N-(5-(4-(2-aminoethyl)piperazin-1-yl)-2-((6-(3-(2,6-dichloro-3,5-dimethoxyphenyl)-1-methylureido)pyrimidin-4-yl)amino)phenyl)acrylamide 2 TFA salt]	< 1 nM
C=CC(=O)Nc1cc(OCCO)ccc1Nc1cc(N(C)C(=O)Nc2c(Cl)c(OC)cc(OC)c2Cl)ncn1 [Compound 164, 2,2,2-trifluoroacetate]	< 1 nM
C=CC(=O)Nc1cc(N2CCN(CCO)CC2)ccc1Nc1cc(N(C)C(=O)Nc2c(Cl)c(OC)cc(OC)c2Cl)ncn1 [Compound 168, N-(2-((6-(3-(2,6-dichloro-3,5-dimethoxyphenyl)-1-methylureido)pyrimidin-4-yl)amino)-5-(4-(2-hydroxyethyl)piperazin-1-yl)phenyl)acrylamide TFA salt]	< 1 nM
COc1cc(OC)c(Cl)c(NC(=O)N(C)c2cc(Nc3ccccc3NC(=O)/C=C/Cl)ncn2)c1Cl [Compound 170, (E)-3-chloro-N-(2-((6-(3-(2,6-dichloro-3,5-dimethoxyphenyl)-1-methylureido)pyrimidin-4-yl)amino)phenyl)acrylamide]	8 nM
COc1cc(OC)c(Cl)c(NC(=O)N(C)c2cc(Nc3ccccc3NC(=O)/C=C\Cl)ncn2)c1Cl [Compound 171, (Z)-3-chloro-N-(2-((6-(3-(2,6-dichloro-3,5-dimethoxyphenyl)-1-methylureido)pyrimidin-4-yl)amino)phenyl)acrylamide]	3 nM
C=CC(=O)Nc1ccccc1Nc1cc(N(CCNC(C)C)C(=O)Nc2c(Cl)c(OC)cc(OC)c2Cl)ncn1 [Compound 183]	180 nM
C=CC(=O)Nc1c(F)cccc1Nc1cc(N(C)C(=O)Nc2c(Cl)c(OC)cc(OC)c2Cl)ncn1 [Compound 185, N-(2-((6-(3-(2,6-dichloro-3,5-dimethoxyphenyl)-1-methylureido)pyrimidin-4-yl)amino)-6-fluorophenyl)acrylamide]	13 nM
C=CC(=O)Nc1c(Nc2cc(N(C)C(=O)Nc3c(Cl)c(OC)cc(OC)c3Cl)ncn2)cccc1OC [Compound 186]	345 nM

Other lines, results leading:

IC50	SMILES
< 1 nM	C#CC(=O)Nc1ccccc1Nc1cc(N(C)C(=O)Nc2c(Cl)c(OC)cc(OC)c2Cl)ncn1 [Compound 114, N-(2-(6-(3-(2,6-dichloro-3,5-dimethoxyphenyl)-1-methylureido)pyrimidin-4-ylamino)phenyl)propiolamide]
< 1 nM	C=CC(=O)Nc1ccccc1Nc1cc(N(CCCN2CCN(C)CC2)C(=O)Nc2c(Cl)c(OC)cc(OC)c2Cl)ncn1 [Compound 121, N-[2-(6-{3-(2,6-Dichloro-3,5-dimethoxy-phenyl)-1-[3-(4-methyl-piperazin-1-yl)-propyl]-ureido}-pyrimidin-4-ylamino)-phenyl]-acrylamide]
< 1 nM	C=CC(=O)Nc1cc(N2C[C@@H](C)N[C@@H](C)C2)ccc1Nc1cc(N(C)C(=O)Nc2c(Cl)c(OC)cc(OC)c2Cl)ncn1 [Compound 124, N-[2-{6-[3-(2,6-Dichloro-3,5-dimethoxy-phenyl)-1-methyl-ureido]-pyrimidin-4-ylamino}-5-(3,5-dimethyl-piperazin-1-yl)-phenyl]-acrylamide]
< 1 nM	C=CC(=O)Nc1cc(N2CCN(S(C)(=O)=O)CC2)ccc1Nc1cc(N(C)C(=O)Nc2c(Cl)c(OC)cc(OC)c2Cl)ncn1 [Compound 125, N-[2-{6-[3-(2,6-Dichloro-3,5-dimethoxy-phenyl)-1-methyl-ureido]-pyrimidin-4-ylamino}-5-(4-methanesulfonyl-piperazin-1-yl)-phenyl]-acrylamide]
< 1 nM	C=CC(=O)Nc1ccccc1Nc1cc(N(Cc2ccccn2)C(=O)Nc2c(Cl)c(OC)cc(OC)c2Cl)ncn1 [Compound 131, N-(2-{6-[3-(2,6-Dichloro-3,5-dimethoxy-phenyl)-1-pyridin-2-ylmethyl-ureido]-pyrimidin-4-ylamino}-phenyl)-acrylamide]
< 1 nM	C=CC(=O)Nc1cc(N2CCN(CC)CC2)ccc1Nc1cc(N(C)C(=O)Nc2c(Cl)cccc2Cl)ncn1 [Compound 140, N-(2-((6-(3-(2,6-dichlorophenyl)-1-methylureido)pyrimidin-4-yl)amino)-5-(4-ethylpiperazin-1-yl)phenyl)acrylamide]
< 1 nM	C=CC(=O)Nc1cc(N2CCN(CC)CC2)ccc1Nc1cc(N(C)C(=O)Nc2c(F)c(OC)cc(OC)c2Cl)ncn1 [Compound 144, N-(2-((6-(3-(2-chloro-6-fluoro-3,5-dimethoxyphenyl)-1-methylureido)pyrimidin-4-yl)amino)-5-(4-ethylpiperazin-1-yl)phenyl)acrylamide]
< 1 nM	C=CC(=O)Nc1cc(COC)ccc1Nc1cc(N(C)C(=O)Nc2c(Cl)c(OC)cc(OC)c2Cl)ncn1 [Compound 147, N-(2-((6-(3-(2,6-dichloro-3,5-dimethoxyphenyl)-l-methylureido)pyrimidin-4-yl)amino)-5-(methoxymethyl)phenyl)acrylamide]
< 1 nM	C=CC(=O)Nc1cc(C(=O)N(C)C)ccc1Nc1cc(N(C)C(=O)Nc2c(Cl)c(OC)cc(OC)c2Cl)ncn1 [Compound 149, 3-acrylamido-4-((6-(3-(2,6-dichloro-3,5-dimethoxyphenyl)-1-methylureido)pyrimidin-4-yl)amino)-N,N-dimethylbenzamide]
< 1 nM	C=CC(=O)Nc1cc(C(=O)N2CCN(CC)CC2)ccc1Nc1cc(N(C)C(=O)Nc2c(Cl)c(OC)cc(OC)c2Cl)ncn1 [Compound 150, N-(2-((6-(3-(2,6-dichloro-3,5-dimethoxyphenyl)-1-methylureido)pyrimidin-4-yl)amino)-5-(4-ethylpiperazine-1-carbonyl)phenyl)acrylamide]
< 1 nM	C=CC(=O)Nc1cc(C(C)OC)ccc1Nc1cc(N(C)C(=O)Nc2c(Cl)c(OC)cc(OC)c2Cl)ncn1 (stereo not shown) [Compound 155, N-(2-((6-(3-(2,6-dichloro-3,5-dimethoxyphenyl)-1-methylureido)pyrimidin-4-yl)amino)-5-(1-methoxyethyl)phenyl)acrylamide]
< 1 nM	C=CC(=O)Nc1cc(C(C)O)ccc1Nc1cc(N(C)C(=O)Nc2c(Cl)c(OC)cc(OC)c2Cl)ncn1 (stereo not shown) [Compound 156, N-(2-((6-(3-(2,6-dichloro-3,5-dimethoxyphenyl)-1-methylureido)pyrimidin-4-yl)amino)-5-(1-hydroxyethyl)phenyl) acrylamide]
< 1 nM	C=CC(=O)Nc1cc(N(C)CCO)ccc1Nc1cc(N(C)C(=O)Nc2c(Cl)c(OC)cc(OC)c2Cl)ncn1 [Compound 158, N-(2-((6-(3-(2,6-dichloro-3,5-dimethoxyphenyl)-1-methylureido)pyrimidin-4-yl)amino)-5-((2-hydroxyethyl)(methyl)amino)phenyl)acrylamide]
< 1 nM	C=CC(=O)Nc1cc(N2CCN(C)CC2)ccc1Nc1cc(N(C)C(=O)Nc2c(Cl)c(OC)cc(OC)c2Cl)ncn1 [Compound 159]
< 1 nM	C=CC(=O)Nc1cccc(C)c1Nc1cc(N(C)C(=O)Nc2c(Cl)c(OC)cc(OC)c2Cl)ncn1 [Compound 165, N-(2-((6-(3-(2,6-dichloro-3,5-dimethoxyphenyl)-1-methylureido)pyrimidin-4-yl)amino)-3-methylphenyl)acrylamide]
< 1 nM	C=CC(=O)Nc1cccc(OC)c1Nc1cc(N(C)C(=O)Nc2c(Cl)c(OC)cc(OC)c2Cl)ncn1 [Compound 166, N-(2-((6-(3-(2,6-dichloro-3,5-dimethoxyphenyl)-1-methylureido)pyrimidin-4-yl)amino)-3-methoxyphenyl)acrylamide]
< 1 nM	C=CC(=O)Nc1cccc(Cl)c1Nc1cc(N(C)C(=O)Nc2c(Cl)c(OC)cc(OC)c2Cl)ncn1 [Compound 167, N-(3-chloro-2-((6-(3-(2,6-dichloro-3,5-dimethoxyphenyl)-1-methylureido)pyrimidin-4-yl)amino)phenyl)acrylamide]
< 1 nM	CCN1CCN(c2ccc(Nc3cc(N(C)C(=O)Nc4c(Cl)c(OC)cc(OC)c4Cl)ncn3)c(NC(=O)/C=C\Cl)c2)CC1 [Compound 181, (Z)-3-chloro-N-(2-((6-(3-(2,6-dichloro-3,5-dimethoxyphenyl)-1-methylureido)pyrimidin-4-yl)amino)-5-(4-ethylpiperazin-1-yl)phenyl)acrylamide]
